Results taken from US20040220268A1, “Compound that directly stimulates phospholipase C activity” (priority 2003, published 2004).

Experiments:
[1] = test system: human neutrophils; experiment: [Ca2+]i measurement with fura-2 in neutrophils; assay type: cell-based; conditions: for effect on calcium signal induced by m-3M3FBS: pretreatment with 4 μM, m-3M3FBS 25 μM
Method: Fura-2-loaded neutrophils were stimulated with m-3M3FBS or o-3M3FBS at 25 μM in extracellular calcium containing 2 mM or extracellular free calcium conditions. The results shown are representative of three independent experiments (A). Prepared neutrophils were loaded with fura-2 and then stimulated with 25 μM of m-3M3FBS in the absence or in the presence of 4 μM of U-73122 or U-73343 (B). Changes in 340 nm/380 nm excitation ratio were monitored, and converted to [Ca^2+]i levels. Data are presented as means ±S. E. M. of three independent experiments.
(§1) Freshly prepared human neutrophils were incubated in serum free RPMI 1640 medium with 3 μM of fura-2/AM at 37° C. for 30 min with continuous stirring. After washing with serum free RPMI 1640 medium, the cells were suspended in serum free RPMI containing 250 μM of sulfinpyrazone to prevent dye leakage. About 2×10^6 cells were suspended in Ca^2+ free Locke's solution (158.4 mM NaCl, 5.6 mM KCl, 1.2 mM MgCl2, 5 mM HEPES pH 7.3, 10 mM glucose, and 0.2 mM EGTA) for each measurement. Changes in the fluorescence ratio were measured at an emission wavelength of 500 nm for dual excitation wavelengths at 340 nm and 380 nm. The calibration of the fluorescence ratio versus [Ca^2+]i was performed as described by Grynkiewicz (Grynkiewicz et al., 1985).

[2] = test system: Gs-proteins; experiment: Cyclic AMP generation (radio receptor assay); assay type: cell-based; conditions: human neutrophils; m-3M3FBS 25 μM, histamine 100 μM
Method: (§2) Isolated neutrophils were preincubated with PTX (1 μg/ml) or vehicle for 90 min at 37° C. and stimulated with m-3M3FBS, FMLF, or ATP at concentrations of 25, 1, and 500 μM, respectively. Changes in the excitation ratios at 340 nm/380 nm were monitored. Data are presented as means ±S. E. M. of two independent experiments (A). cAMP levels were determined by a radio receptor assay. Prepared cells were treated with m-3M3FBS (25 μM) or histamine (100 μM) and then lysed with Tris-EDTA. After removing the supernatant, [ 3H] cAMP and protein were added, and the amount of [^3H] cAMP-protein complex was determined. The amount of unlabeled cAMP (in the sample) was then calculated by measuring the protein-bound radioactivity. Data are presented as means ±S. E. M. of two independent experiments (B). […] RGS2-GFP inducible HeLa cells were cultured for 48 h in the absence or in the presence of tetracycline and loaded with fura-2. Cells were treated with histamine (100 μM) or m-3M3FBS (25 μM), and changes in the 340 nm/380 nm ratios were monitored and converted to [Ca^2+]i values. The results shown are representative of three independent experiments (C).

[3] = test system: Gq-proteins; experiment: [Ca2+]i in RGS2-GFP inducible HeLa cells; assay type: cell-based, human; conditions: histamine 100 μM, m-3M3FBS 25 μM
Method: as §2
pRevTRE vector containing the cDNA of rat RGS2-GFP was transfected into Hela Tet-off cells using Lipofectamine. Selection was performed in DMEM supplemented with 2 μg/ml of tetracycline and 500 μg/ml of hygromycin B. Two weeks later, several well-isolated colonies were picked out and analyzed by western blotting to determine the expression level of RGS2 in the absence of tetracycline. For these experiments, HeLa cells were cultured for 48 h in the absence or in the presence of tetracycline.
as §1

[4] = test system: PTX-sensitive Gi-proteins; experiment: PTX sensitivity of [Ca2+]i increase in neutrophils; assay type: cell-based, human; conditions: fMLF 1 μM
Method: Isolated neutrophils were preincubated with PTX (1 μg/ml) or vehicle for 90 min at 37° C. and stimulated with m-3M3FBS, FMLF, or ATP at concentrations of 25, 1, and 500 μM, respectively. Changes in the excitation ratios at 340 nm/380 nm were monitored. Data are presented as means ±S. E. M. of two independent experiments (A). cAMP levels were determined by a radio receptor assay. Prepared cells were treated with m-3M3FBS (25 μM) or histamine (100 μM) and then lysed with Tris-EDTA. After removing the supernatant, [ 3H] cAMP and protein were added, and the amount of [^3H] cAMP-protein complex was determined. The amount of unlabeled cAMP (in the sample) was then calculated by measuring the protein-bound radioactivity. Data are presented as means ±S. E. M. of two independent experiments (B). RGS2-GFP inducible HeLa cells were cultured for 48 h in the absence or in the presence of tetracycline, and the induction of RGS2-GFP was confirmed by Western blot analysis using anti-GFP antibody (C). RGS2-GFP inducible HeLa cells were cultured for 48 h in the absence or in the presence of tetracycline and loaded with fura-2. Cells were treated with histamine (100 μM) or m-3M3FBS (25 μM), and changes in the 340 nm/380 nm ratios were monitored and converted to [Ca^2+]i values. The results shown are representative of three independent experiments (C).
as §1

For `COc1ccc2c(c1)CC[C@@H]1[C@@H]2CC[C@]2(C)[C@@H](NCCCCCCN3C(=O)CCC3=O)CC[C@@H]12` [U-73343, reference compound], the “effect on calcium signal induced by m-3M3FBS” value [1] was “no effect”.
With `NCCc1c[nH]cn1` [histamine, reference compound] the “intracellular cAMP level” value [2] was “potently induce cAMP production”, the “[Ca2+]i increase” value ([3]; HeLa cells in the presence of tetracycline (RGS2 not induced)) was “caused [Ca^2+]i increases” and the “effect of RGS2 induction on the induced calcium response” value ([3]; HeLa cells overexpressing RGS2) was “completely blocked”.
In the case of `COc1ccc2c(c1)CC[C@@H]1[C@@H]2CC[C@]2(C)[C@@H](NCCCCCCN3C(=O)C=CC3=O)CC[C@@H]12` [U-73122, reference compound], the “effect on m-3M3FBS-induced calcium signal” value ([1]; preincubation in the presence of extracellular calcium, data not shown) is reported as “completely blocked” and the “effect on calcium signal induced by m-3M3FBS” value [1] is reported as “complete inhibition”.
fMLF was tested, and the “effect of PTX preincubation on the induced calcium increase” value ([4]; PTX 1 μg/ml for 90 min, m-3M3FBS 25 μM) was “inhibited” and the “[Ca2+]i increase” value ([4]; neutrophils, without PTX) was “induced [Ca^2+]i increase”.
